Results taken from patent publication US8338392B2, “MicroRNA modulators and method for identifying and using the same” (The Wistar Institute, priority 2008, dated 2012).
Entries after “also recorded” stand apart in the source; their conditions may differ.

Key:
Format in all cases: cell-based, human
[1] = tested on: miR-21; test: Luc-miR-21 luciferase reporter assay in HeLa cells; conditions: for Luciferase Assay: HeLa cells with Luc-miR-21 reporter, screen at 10 μM, 48 hours
Excerpt: (§1) MicroRNA miR-21 was selected as a target miRNA due to its involvement as an anti-apoptotic factor in cancer cells and its elevated levels in various cancers such as breast, ovarian, and lung cancer as well as glioblastoma (Chan, et al. (2005) Cancer Res. 65:6029). Lentiviral reporter constructs for miRNA activity were assembled by introducing the complementary sequences of mature miR-21 (5′-UAGCUUAUCAGACUGAUGUUGA-3′; SEQ ID NO:13), miR-30A (5′-CUUUCAGUCGGAUGUUUGCAGC-3′; SEQ ID NO:14) as a specificity control, and a linker sequence (a previously present multiple-cloning site with no detectable recognition by natural miRNAs) downstream of a luciferase reporter gene as a negative control (FIG. 1).
(§2) Luc-miR-21, Luc-miR-30A, and Luc-linker (control) were, by viral infection, introduced into HeLa cells, which express high levels of miR-21, but only low levels of miR-30A (Cheng, et al. (2005) Nucl. Acids Res. 33:1290).
To illustrate the method of the present invention, a primary screen of >1000 compounds was conducted. The library was composed of a collection of novel compounds and the Library of Pharmacologically Active Compounds (LOPAC library, Sigma-Aldrich, St Louis, Mo.). All compounds were stored at a 10 mM concentration in DMSO to keep the DMSO concentration in the actual screen at 0.1% thereby minimizing toxicity. HeLa cells stably expressing the miR-reporter were treated with DMSO ranging from 0.1-1%. Luciferase signals were determined 48 hours after the treatment.
HeLa cells (2500 cells) were plated in each well of 384-well plate 24 hour before the addition of compounds. Compounds at 10 μM final concentration were added to each well. Luciferase signal were determined 48 hours after compound treatment. Using this screening assay, compound 1 was identified as a miR-21 antagonist.

[2] = tested on: mature miR-21; test: Quantitative RT-PCR of mature miR-21; conditions: for mature miR-21 expression upon treatment: HCT116 colon cancer cells and A172 glioblastoma cells
Excerpt: (§3) UNG (Applied Biosystems). […] (Sigma). […] ID NO:18); E-cadherin: forward [NT] ID NO:19), reverse [NT] ID NO:20); Fibronectin: forward [NT] ID NO:21), reverse [NT] ID NO:22); RAP1A: forward [NT] ID NO:23), reverse [NT]

[3] = tested on: primary miR-21 (pri-miR-21); test: Quantitative RT-PCR of primary miR-21; conditions: for primary miR-21 expression upon treatment: HCT116 colon cancer cells and A172 glioblastoma cells
Excerpt: UNG (Applied Biosystems). […] (Sigma).

[4] = tested on: miR-30; test: miR-30 luciferase reporter in HeLa cells expressing miR-30; conditions: HeLa cells expressing miR-30 reporter and miR-30, 10 μM
Excerpt: as §1
The specificity of the reporter system was tested by assaying cells which contained both the Luc-miR-30A reporter and a construct expressing exogenous miR-30.
(§4) It was subsequently determined whether Compound 2 was a specific inhibitor of miR-21 or whether it could interfere with the general miRNA biogenesis pathway. Thus, HeLa cells stably expressing both the miR-30 luciferase reporter construct and miR-30 were treated with Compound 2.

[5] = tested on: HCT116 colon cancer cells; test: Cell proliferation of HCT116 cells, drug combinations
Excerpt: The % activity indicates % live cell activity.

[6] = tested on: Luc-Linker control; test: Luc-Linker control luciferase reporter in HeLa cells; conditions: 10 μM, relative to DMSO, listed as diazobenzene 2
Excerpt: as §1, §2, §4

[7] = tested on: mature miR-93; test: Quantitative RT-PCR of mature miR-93; conditions: MDA-MB-231, MCF-7 and A172 cell lines
Excerpt: as §3

[8] = tested on: mature miR-30; test: Quantitative RT-PCR of mature miR-30; conditions: MDA-MB-231, MCF-7 and A172 cell lines
Excerpt: as §3

[9] = MDA-MB-231, MCF-7 and A172 cell lines

COc1ccc2c(c1N)CCC1C2CC[C@]2(C)C(=O)CCC12 (stereo partly shown) [Compound 7]
Luciferase Assay [1]: 3.04-3.87

COc1cc(/C=C/C(=O)CC(=O)/C=C/c2ccc(O)c(OC)c2)ccc1O [Curcumin, curcumin]
mature miR-21 expression upon treatment [2]: increased
primary miR-21 expression upon treatment [3]: increased

COc1cc2c(cc1N)C1CC[C@]3(C)C(=O)CCC3C1CC2 (stereo partly shown) [Compound 8]
Luciferase Assay [1]: 3.50

O=C1c2cc3c(cc2-c2[nH]c(=O)c4ccccc4c21)OCO3 [Compound 5]
Luciferase Assay [1]: 2.92

C#CCNC(=O)c1ccc(NNc2ccccc2)cc1 [Compound 3]
Luciferase Assay [1]: 3.67

Cn1c2c(c3ccccc3c1=O)C(=O)c1cc3c(cc1-2)OCO3 [Compound 4]
Luciferase Assay [1]: 3.12

C[C@]12CC[C@@H]3c4ccc(O)cc4CC[C@H]3[C@@H]1CCC2=O [Estrone, estrone, reference compound]
Luciferase Assay [1]: 2.76

O=c1[nH]cc(F)c(=O)[nH]1 [Compound 5-FU, 5-fluorouracil]
mature miR-21 expression upon treatment [2]: increased
primary miR-21 expression upon treatment [3]: increased

COc1ccc2c(c1[N+](=O)[O-])CCC1C2CC[C@]2(C)C(=O)CCC12 (stereo partly shown) [Compound 6]
Luciferase Assay [1]: 3.34

C#CCNC(=O)c1ccc(/N=N/c2ccccc2)cc1 [Compound 2, (E)-4-(Phenyldiazenyl)-N-(prop-2-ynyl)benzamide]
effect on luciferase signal, miR-30 reporter [4]: no increase of the luciferase signal was detected
effect on luciferase signal, miR-30 reporter ([4]; listed as diazobenzene 2): does not affect
proliferation of HCT116 cells, combination with 5-FU ([5]; combination with 5-FU): synergistic effect; also recorded: synergistically decrease the proliferation
proliferation of HCT116 cells, combination with Curcumin ([5]; combination with Curcumin): synergistic effect; also recorded: synergistically decrease the proliferation
effect on mature miR-21 [2, 9]: suppressed
effect on luciferase signal, Luc-Linker control [6]: does not affect; also recorded: did not affect the luciferase signal
effect on mature miR-93 [7]: no effect
effect on mature miR-30 [8]: no effect
effect on primary miR-21 [3, 9]: suppressed
fold increase of the luciferase signal ([1]; 10 μM, HeLa cells): 5 fold
Luciferase Assay [1]: 4.83
